Legend:
Assay in all cases: Carboxyl esterase activity in cell extract, 1H NMR
Format in all cases: biochemical, human
[1] = test system: carboxyl esterase in lysed breast cancer cells (MCF-7); conditions: 5 million lysed cells; for Metabolic conversion, Breast cancer cells MCF-7: 37° C.
Experimental: (§1) The hydrolysis of the substrates was investigated in cell extracts. To test substrates without isotope labelling for carboxyl esterase activity in a cellular background, a ^1H NMR assay was applied. Human breast cancer cells (MCF-7) and human prostate cancer cells (PC-3) were grown in RPMI medium with 10% FBS and antibiotics. They were at confluence harvested by trypsination and washed once with 5 ml PBS. They were spun down and resuspended in PBS to a concentration of 20 mill. cells/ml. The cells were hereafter sonicated on ice (50% amplitude, 1 min, 3 sec pulse). Human lymphocytes were purified from whole blood. Whole blood samples were drawn from healthy volunteer into heparinised venous blood collection tubes (Venosafe vacumtubes from Terumo). For each experiment, the blood was purified freshly: Three and a half 10 mL tubes of blood were pooled in each of four 50 mL Leucosep (Greiner) tubes prepared with 15 mL Histopaque 1077 (Sigma). The Leucosep tubes were spun for 15 min at 800× g at 24 C. The plasma was removed and the white blood cells were transferred to a 50 mL falcon tube by decanting and diluted 1:2 in PBS-Mg—Ca for a total volume of 50 mL. The cells were sedimented by centrifugation at 250×g for 60 min. Diluting with trypan blue and counting in hemocytometer determined the total number of lymphocytes before sedimentation. All cells were viable and the total number of cells in each cell batch was approx. 60 million. The lymphocytes were redissolved to a concentration of 20 million cells/ml. The cells were hereafter sonicated on ice (50% amplitude, 1 min, 3 sec pulse).
(§2) 250 μl sonicated cell suspension was mixed with 250 μl 400 mM phosphate buffer pH 7.3. This solution was transferred to a 5 mm NMR tube and warmed on a water bath to 37° C. The substrate was added (50 μl, 60 mM) and the tube turned for mixing before it was inserted into the spectrometer. The data was analyzed with MNOVA software and measured as percentage conversion of substrate calculated to account for the amount of substrate converted over 60 min; numbers are given in μmol/hour.

[2] = test system: carboxyl esterase in lysed lymphocytes (B + T cells); conditions: 5 million lysed cells; for Metabolic conversion, Lymphocytes (B + T cells): 37° C.
Experimental: as §1, §2

[3] = test system: carboxyl esterase in lysed prostate cancer cells (PC-3); conditions: for Metabolic conversion, Prostate cancer cells PC-3: 37° C.
Experimental: as §1, §2

[4] = acetate vs ethyl ester function

| SMILES | Metabolic conversion, Breast cancer cells MCF-7 [1] | Metabolic conversion, Lymphocytes (B + T cells) [2] | Metabolic conversion, Prostate cancer cells PC-3 ([3]; 5 million lysed cells) | metabolic conversion in prostate cancer cells compared to lymphocytes ([3]; cell number basis, positive contrast) | Breast cancer cells MCF-7 Ratio acetate/ethyl [1, 4] | Lymphocytes (B + T cells) Ratio acetate/ethyl [2, 4] | Prostate cancer cells PC-3 Ratio acetate/ethyl ([3]; 5 million lysed cells, acetate vs ethyl ester function) |
| --- | --- | --- | --- | --- | --- | --- | --- |
| CC(=O)OCc1ccccc1 [Benzyl acetate] | 1.05 µmol/h | 0.39 µmol/h | 22 µmol/h | ~60 times |  |  |  |
| CC(=O)OCC(COC(C)=O)OC(C)=O [Tri-acetin] | 0.27 µmol/h | 0.18 µmol/h | 1.8 µmol/h |  |  |  |  |
| CCOC(=O)CC(C)OC(C)=O (stereo not shown) [ethyl 3-acetoxy butanoate] |  |  |  |  | 2 | 1 | 9 |
